Reference: paper PMC12802951, “Unravelling the triad of penicillin-binding proteins, β-lactamase activity, and mRNA dynamics in Pseudomonas aeruginosa AmpC induction” (Journal of Antimicrobial Chemotherapy, 2025)
pIC50: −log10 of the molar value. Like-named read-outs stand apart in the source and are kept apart here.

Columns and labels:
[1] = target: T1, PBP2 (Pseudomonas aeruginosa, UniProt G3XCV7); assay: Bocillin-FL competition in whole cells; type: cell-based; settings: intact PAO1 cells, 30 min incubation, covalent
T1 construct: gene pbpA; native full-length protein in intact P. aeruginosa PAO1 cells, Bocillin-FL labelled
T1 sequence (G3XCV7 1-646): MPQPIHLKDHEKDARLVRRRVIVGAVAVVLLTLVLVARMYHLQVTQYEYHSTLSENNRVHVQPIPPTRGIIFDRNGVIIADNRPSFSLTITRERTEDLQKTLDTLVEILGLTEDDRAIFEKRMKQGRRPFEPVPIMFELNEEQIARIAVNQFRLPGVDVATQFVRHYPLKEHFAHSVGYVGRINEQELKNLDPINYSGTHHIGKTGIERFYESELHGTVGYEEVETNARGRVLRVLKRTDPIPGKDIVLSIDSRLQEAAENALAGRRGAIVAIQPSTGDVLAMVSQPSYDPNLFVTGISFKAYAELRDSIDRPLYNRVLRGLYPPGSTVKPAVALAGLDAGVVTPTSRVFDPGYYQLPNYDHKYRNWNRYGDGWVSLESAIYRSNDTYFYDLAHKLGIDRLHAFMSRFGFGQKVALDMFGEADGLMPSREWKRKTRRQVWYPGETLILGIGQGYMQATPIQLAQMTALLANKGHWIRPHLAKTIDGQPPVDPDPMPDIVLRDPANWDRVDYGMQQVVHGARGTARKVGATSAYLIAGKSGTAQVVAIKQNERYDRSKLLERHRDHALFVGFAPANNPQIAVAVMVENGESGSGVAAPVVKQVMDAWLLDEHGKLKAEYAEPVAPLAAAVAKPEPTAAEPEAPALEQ
Excerpt: Bocillin-FL competition in whole cells on PBP2

[2] = target: T2, PBP5 (Pseudomonas aeruginosa, UniProt G3XD74); assay: Bocillin-FL competition in whole cells; type: cell-based; settings: intact PAO1 cells, 30 min incubation, covalent
T2 construct: gene dacC; native full-length protein in intact P. aeruginosa PAO1 cells, Bocillin-FL labelled

[3] = target: T3, PBP3 (Pseudomonas aeruginosa, UniProt G3XD46); assay: Bocillin-FL competition in whole cells; type: cell-based; parameters: gene ftsI; native full-length protein in intact P. aeruginosa PAO1 cells, Bocillin-FL labelled; settings: intact PAO1 cells, 30 min incubation, covalent
[4] = target: T4, PBP4 (Pseudomonas aeruginosa, UniProt Q9HZG1); assay: Bocillin-FL competition in whole cells; type: cell-based; settings: intact PAO1 cells, 30 min incubation, covalent
T4 construct: gene PA3047; native full-length protein in intact P. aeruginosa PAO1 cells, Bocillin-FL labelled
Excerpt: Bocillin-FL competition in whole cells on PBP4

[5] = target: T3, PBP3; assay: biochemical; parameters: gene ftsI; native protein in lysed PAO1; species or system Pseudomonas aeruginosa PAO1; Bocillin FL labelling competition of PBPs in lysed P. aeruginosa PAO1
Excerpt: Abstract Objectives The main objective of the present work was to dissect the interplay between penicillin-binding protein (PBP) occupancy, ampC transcriptional dynamics, and β-lactamase activity in Pseudomonas aeruginosa. Methods Using wild-type PAO1 and isogenic LMW-PBP knockout mutants (PAOΔdacB, PAOΔdacBdacC, and PAOΔdacBdacCpbpG), we assessed ampC induction following exposure to 18 β-lactams and β-lactamase inhibitors. PBP binding (IC50) was quantified via Bocillin-FL labelling. AmpC mRNA levels were measured by qRT-PCR, and β-lactamase activity was determined in crude extracts, periplasmic and extracellular fractions using nitrocefin and cefalotin substrates. […] Binding to PBP4 is a recognized trigger for ampC induction.

[6] = target: T5, AmpC (Pseudomonas aeruginosa, UniProt P24735); assay: inhibition of nitrocefin / cefalotin hydrolysis in crude extract; type: biochemical; settings: crude extract of PAOΔdacBdacCpbpG; 500 mg/L in Results (Methods: 50 and 100 μM); both substrates
T5 construct: native chromosomal enzyme in crude extract of constitutive AmpC-overproducing triple LMW-PBP knockout

[7] = read-out: Drug mg/L^a / CAR / TZB
[8] = read-out: Drug mg/L^a / TIC / REL
[9] = read-out: Drug mg/L^a / MEM / FOX
[10] = read-out: Drug mg/L^a / ETP / CAZ
[11] = read-out: Drug mg/L^a / DOR / AVI
[12] = read-out: Drug mg/L^a / PIP / CLV
[13] = read-out: Drug mg/L^a / MEC / SUL

T4 sequence (Q9HZG1 entry or part of it): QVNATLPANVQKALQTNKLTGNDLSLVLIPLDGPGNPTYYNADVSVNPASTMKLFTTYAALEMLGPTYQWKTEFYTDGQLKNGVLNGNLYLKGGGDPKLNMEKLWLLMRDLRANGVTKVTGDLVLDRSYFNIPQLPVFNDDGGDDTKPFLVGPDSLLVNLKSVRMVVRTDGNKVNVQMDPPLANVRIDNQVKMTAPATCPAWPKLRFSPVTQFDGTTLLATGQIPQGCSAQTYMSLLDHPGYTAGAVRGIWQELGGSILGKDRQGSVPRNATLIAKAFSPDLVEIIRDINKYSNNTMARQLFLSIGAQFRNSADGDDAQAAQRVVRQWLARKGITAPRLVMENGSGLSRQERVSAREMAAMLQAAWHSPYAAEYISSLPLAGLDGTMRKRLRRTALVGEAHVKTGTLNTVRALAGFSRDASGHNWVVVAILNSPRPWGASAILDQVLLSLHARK
T2 sequence (G3XD74 entry or part of it): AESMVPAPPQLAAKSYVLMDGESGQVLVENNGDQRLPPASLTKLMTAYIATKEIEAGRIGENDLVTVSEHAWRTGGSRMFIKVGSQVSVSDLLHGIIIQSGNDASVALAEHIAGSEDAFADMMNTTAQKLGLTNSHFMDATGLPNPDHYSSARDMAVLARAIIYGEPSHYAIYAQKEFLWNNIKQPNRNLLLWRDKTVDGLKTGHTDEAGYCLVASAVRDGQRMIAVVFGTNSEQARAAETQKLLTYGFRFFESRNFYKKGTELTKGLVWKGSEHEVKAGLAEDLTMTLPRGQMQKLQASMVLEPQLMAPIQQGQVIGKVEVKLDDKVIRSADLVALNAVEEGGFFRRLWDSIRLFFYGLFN
T3 sequence (G3XD46 whole entry): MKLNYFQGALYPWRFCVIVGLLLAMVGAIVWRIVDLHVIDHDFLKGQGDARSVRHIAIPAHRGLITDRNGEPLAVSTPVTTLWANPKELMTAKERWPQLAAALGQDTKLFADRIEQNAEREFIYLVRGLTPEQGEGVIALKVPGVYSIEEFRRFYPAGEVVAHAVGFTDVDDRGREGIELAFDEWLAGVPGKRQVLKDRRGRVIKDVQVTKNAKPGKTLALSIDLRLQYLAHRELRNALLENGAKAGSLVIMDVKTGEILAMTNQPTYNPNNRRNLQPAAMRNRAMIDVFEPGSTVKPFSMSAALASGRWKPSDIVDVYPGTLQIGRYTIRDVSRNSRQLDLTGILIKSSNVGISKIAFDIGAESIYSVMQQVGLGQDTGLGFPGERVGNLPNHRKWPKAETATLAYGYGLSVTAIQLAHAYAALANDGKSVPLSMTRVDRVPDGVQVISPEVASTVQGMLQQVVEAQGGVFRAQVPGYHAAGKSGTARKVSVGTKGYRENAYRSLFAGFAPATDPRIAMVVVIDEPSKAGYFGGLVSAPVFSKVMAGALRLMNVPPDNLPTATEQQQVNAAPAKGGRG
T5 sequence (P24735 27-397): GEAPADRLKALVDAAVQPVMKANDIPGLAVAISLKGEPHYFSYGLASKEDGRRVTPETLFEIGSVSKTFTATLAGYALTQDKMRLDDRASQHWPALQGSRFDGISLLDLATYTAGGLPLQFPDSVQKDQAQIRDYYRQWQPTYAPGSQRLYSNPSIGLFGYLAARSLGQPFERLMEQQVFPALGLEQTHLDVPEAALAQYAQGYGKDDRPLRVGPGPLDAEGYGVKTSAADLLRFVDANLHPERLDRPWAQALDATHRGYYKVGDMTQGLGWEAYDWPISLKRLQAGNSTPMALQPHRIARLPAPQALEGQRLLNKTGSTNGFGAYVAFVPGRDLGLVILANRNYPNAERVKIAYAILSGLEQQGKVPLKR

CC1(C)S[C@@H]2[C@H](NC(=O)C(C(=O)O)c3ccccc3)C(=O)N2[C@H]1C(=O)O (some centres unmarked) [carbenicillin]
pIC50 [1, 7]: 4.07 | pIC50 [2, 7]: 3.89 | pIC50 [3, 7]: 5.05

O=C(NC1CCNCC1)[C@@H]1CC[C@@H]2CN1C(=O)N2OS(=O)(=O)O [relebactam]
pIC50 [1, 8]: 4.77 | pIC50 [2, 8]: 4.09 | pIC50 [4, 8]: 4.61 | pIC50 [3, 8]: 4.91

C[C@@H](O)[C@H]1C(=O)N2C(C(=O)O)=C(S[C@@H]3CN[C@H](C(=O)N(C)C)C3)[C@H](C)[C@H]12 [meropenem]
pIC50 [1, 9]: 5.40 | pIC50 [2, 9]: 5.44 | pIC50 [4, 9]: 7.28

CC(C)(O/N=C(\C(=O)N[C@@H]1C(=O)N2C(C(=O)[O-])=C(C[n+]3ccccc3)CS[C@H]12)c1csc(N)n1)C(=O)O [ceftazidime]
pIC50 [1, 10]: 5.56 | pIC50 [4, 10]: 6.23 | pIC50 [5]: 6.96 | pIC50 [3, 10]: 6.25

Cc1onc(-c2ccccc2Cl)c1C(=O)N[C@@H]1C(=O)N2[C@@H]1SC(C)(C)[C@@H]2C(=O)O [cloxacillin]
% reduction in hydrolysis rate at 500 mg/L [6]: > 95%

C[C@@H](O)[C@H]1C(=O)N2C(C(=O)O)=C(S[C@@H]3CN[C@H](C(=O)Nc4cccc(C(=O)O)c4)C3)[C@H](C)[C@H]12 [ertapenem]
pIC50 [1, 10]: 6.17 | pIC50 [2, 10]: 5.77 | pIC50 [4, 10]: 6.98 | pIC50 [5]: 6.40 | pIC50 [3, 10]: 5.94

C[C@]1(Cn2ccnn2)[C@H](C(=O)O)N2C(=O)C[C@H]2S1(=O)=O [tazobactam]
pIC50 [1, 7]: 4.92 | pIC50 [2, 7]: 4.80 | pIC50 [4, 7]: 4.80 | pIC50 [3, 7]: 4.87

C[C@@H](O)[C@H]1C(=O)N2C(C(=O)O)=C(S[C@@H]3CN[C@H](CNS(N)(=O)=O)C3)[C@H](C)[C@H]12 [doripenem]
pIC50 [1, 11]: 6.16 | pIC50 [2, 11]: 5.67 | pIC50 [4, 9]: 7.32 | pIC50 [5]: 6.51 | pIC50 [3, 11]: 5.98

CO[C@@]1(NC(=O)Cc2cccs2)C(=O)N2C(C(=O)O)=C(COC(N)=O)CS[C@@H]21 [cefoxitin]
pIC50 [1, 9]: 2.32 | pIC50 [2, 9]: 4.91 | pIC50 [4, 9]: 4.32 | FOX IC50 ([5]; lysed PAO1, covalent): 10.7 µg/mL | pIC50 [3, 9]: 2.27

C[C@@H](O)[C@H]1C(=O)N2C(C(=O)O)=C(SCCN=CN)C[C@H]12 [imipenem]
pIC50 ([1]; read-out: IPM / FEP): 6.70 | pIC50 ([2]; read-out: IPM / FEP): 6.70 | pIC50 ([4]; read-out: IPM / FEP): 7.48

C[C@H]1[C@H](NC(=O)/C(=N\OC(C)(C)C(=O)O)c2csc(N)n2)C(=O)N1S(=O)(=O)O [aztreonam]
pIC50 ([1]; read-out: Drug mg/L^a / ATM): 4.77 | pIC50 ([2]; read-out: Drug mg/L^a / ATM): 4.98 | pIC50 ([4]; read-out: Drug mg/L^a / ATM): 5.51 | pIC50 [5]: 6.74 | pIC50 ([3]; read-out: Drug mg/L^a / ATM): 5.76

NC(=O)[C@@H]1CC[C@@H]2CN1C(=O)N2OS(=O)(=O)O [avibactam]
pIC50 [1, 11]: 4.62 | pIC50 [2, 11]: 4.91 | pIC50 [4, 11]: 5.05 | pIC50 [3, 11]: 4.41

CO/N=C(\C(=O)N[C@@H]1C(=O)N2C(C(=O)[O-])=C(C[N+]3(C)CCCC3)CS[C@H]12)c1csc(N)n1 [cefepime]
pIC50 ([1]; read-out: IPM / FEP): 5.70 | pIC50 ([4]; read-out: IPM / FEP): 6.28 | pIC50 ([3]; read-out: IPM / FEP): 6.36

O=C(O)[C@H]1/C(=C/CO)O[C@@H]2CC(=O)N21 [clavulanic acid]
pIC50 [1, 12]: 4.25 | pIC50 [2, 12]: 4.74 | pIC50 [4, 12]: 4.66 | pIC50 [3, 12]: 4.52

CCN1CCN(C(=O)N[C@@H](C(=O)N[C@@H]2C(=O)N3[C@@H]2SC(C)(C)[C@@H]3C(=O)O)c2ccccc2)C(=O)C1=O [piperacillin]
pIC50 [1, 12]: 5.38 | pIC50 [2, 12]: 5.22 | pIC50 [4, 12]: 5.49 | pIC50 [5]: 7.01 | pIC50 [3, 12]: 5.77

CC1(C)[C@H](C(=O)O)N2C(=O)C[C@H]2S1(=O)=O [sulbactam]
pIC50 [1, 13]: 4.72 | pIC50 [2, 13]: 5.05 | pIC50 [4, 13]: 4.91 | pIC50 [3, 13]: 5.04

CC1(C)S[C@@H]2[C@H](NC(=O)[C@H](C(=O)O)c3ccsc3)C(=O)N2[C@H]1C(=O)O [ticarcillin]
pIC50 [1, 8]: 4.29 | pIC50 [2, 8]: 3.17 | pIC50 [3, 8]: 5.19

CC1(C)S[C@@H]2[C@H](N=CN3CCCCCC3)C(=O)N2[C@H]1C(=O)O [mecillinam]
pIC50 [1, 13]: 3.06 | pIC50 [2, 13]: 2.89 | pIC50 [4, 13]: 3.19
